# Reference: US20190106454A1, “COMPOUNDS LINKED WITH A SACCHARIDE METAL COMPLEX AND USES THEREOF” (FRED HUTCHINSON CANCER RESEARCH CENTER, priority 2016, published 2019)
# “Also recorded” adds a separate entry of the source.
# Key:
# heme oxygenase 1 (HO-1) [1] = assay: Induction of HO-1 mRNA (RT-PCR) and protein (ELISA) in renal cortex and plasma; type: in vivo, mice; settings: for renal cortical HO-1 mRNA induction / increase in renal cortical HO-1 levels over baseline: 1 umole; for renal cortical HO-1 mRNA induction: RT-PCR (FIG. 11); for renal cortical HO-1 protein levels / increase in renal cortical HO-1 levels over baseline: ELISA
# Excerpt: (§1) Methods. Male CD-1 mice (25-40 grams) Charles River, Wilmington, Mass.) were used for all experiments. They were housed under standard vivarium conditions with free food and water access. All experiments were approved by the Fred Hutchinson Cancer Research Center IACUC in accordance with NIH guidelines.
# Effects of FeS, SnPP, and B12 on renal cortical induction of heme oxygenase 1 (HO-1). The following experiments assessed the effects of FeS, SnPP, and B12 on the possible induction of the cytoprotective protein HO-1. To this end, mice were injected with each of these agents, as noted above. Either 4 or 18 hrs later, they were anesthetized and the kidneys were removed through a midline abdominal incision. The renal cortices were dissected on ice and then extracted for protein and mRNA. The samples were then assayed for HO-1 protein by ELISA, and HO-1 mRNA by RT-PCR, factored by GAPDH levels. Five normal mice provided control values. […]
# [2] = system: kidney dysfunction in glycerol model rhabdomyolysis; settings: blocking HO with competitive inhibitor; cited from earlier work
# Ferritin heavy (Fhc) = assay: Ferritin heavy chain Western blotting of renal cortex; type: in vivo, mice; settings: 18 hr post treatment, Western blot band densitometry
# Procedure: Ferritin heavy (Fhc) expression in renal cortex. HO-1 activity leads to increased Fhc expression. […] Because Fe sucrose also induces Fhc expression, the potential impact of SnPP treatment on this response was assessed (18 hrs post 1 mg FeS±concomitant SnPP treatment (n, 4 each)).
# haptoglobin = assay: Induction of haptoglobin mRNA and protein in renal cortex and plasma; type: in vivo, mice; settings: 1 umole; for renal cortical haptoglobin mRNA induction: 4 hrs post injection, RT-PCR (FIG. 11)
# Procedure: MesP up-regulates Nrf2 sensitive genes. Mice are injected MesP (0.1-2.5 umoles/mouse) or with a MesP vehicle. At either 4 or 18 hrs, the mice are deeply anesthetized with pentobarbital and the kidneys are removed through a midline abdominal incision. The renal cortices are dissected on ice, extracted for protein and mRNA, and assayed for HO-1 and haptoglobin protein and mRNA levels by ELISA and competitive RT-PCR, respectively. In this regard, both HO-1 and haptoglobin are Nrf2 sensitive genes. An increase in HO-1 and haptoglobin mRNA and protein levels at 4 hrs and 18 hrs post MesP administration, respectively, is measured to confirm MesP, like SnPP, induces Nrf2 signaling.
# renal injury in rats = settings: cited from earlier work
# [3] = system: maleate-induced AKI in mice; assay: Maleate model of AKI; type: in vivo; settings: IV pre-treatment 18 hrs before IP Na maleate 800 mg/Kg, read 18 hrs post maleate
# Excerpt: as §1
# Effects of Fe sucrose (FeS)/tin protoporphyrin (SnPP) on AKI severity. Maleate model of AKI. When injected into rodents, maleate undergoes relatively selective proximal tubule cell uptake via organic anion transporters. Once intracellular accumulation occurs, maleate is a preferred substrate for succinyl-CoA:3-oxoacid CoA transferase. […] Ample levels of CoA are essential for fatty acid “activation”, allowing for their subsequent metabolism through the Krebs cycle, yielding ATP. In the absence of this process, proximal tubule ATP depletion and cell injury result. Additionally, maleate conjugates the sulfhydryl group of glutathione (GSH), culminating in GSH depletion and potential oxidant tubular stress.
# The following experiment tested whether FeS, SnPP or combined FeS+SnPP can mitigate this form of acute kidney injury (AKI). Twenty seven mice were subjected to 200 μL IV tail injections of one of the following: 1) vehicle (phosphate buffered saline, PBS; n, 10); 2) 1 mg FeS (American Regent (Shirley, N.Y.; n, 3); 3) 1 μmole SnPP (Frontier Scientific, Logan, Utah; n 7), or FeS+SnPP, n, 7). Eighteen hrs later, all mice received an IP injection of Na maleate (800 mg/Kg; in 500 ul of PBS). Eighteen hrs later, the mice were deeply anesthetized with pentobarbital (50 mg/Kg IP), the abdominal cavities were opened, and blood samples were obtained from the abdominal vena cava. The severity of kidney injury was assessed by determining plasma blood urea nitrogen (BUN) and plasma creatinine (PCr) concentrations.
# Maleate model of AKI. Mice received tail vein injections of either combination of FeS+B12 or vehicle (n, 6 per group). Eighteen hrs later they received IP maleate injections, as noted above. The severity of AKI was determined 18 hrs post maleate injection by terminal BUN and PCr assessments.
# heme oxygenase 1 (HO-1) [4] = assay: Induction of HO-1 mRNA (RT-PCR) and protein (ELISA) in renal cortex and plasma; type: in vivo, mice; settings: 1 umole, 18 hrs post injection
# [5] = system: renal ischemia-reperfusion (IRI) induced AKI in mice; assay: Renal ischemic-reperfusion injury (IRI) model of AKI; type: in vivo; settings: 1 umole 18 hrs before 22 min bilateral ischemic injury
# Procedure: as §1
# Renal ischemic—reperfusion injury (IRI) model of AKI. The following experiment assessed whether combination FeS+SnPP can mitigate the renal artery occlusion model of AKI. Mice received 200 μl tail vein injections of either PBS (n, 9) or FeS+SnPP (n, 8), as noted above. Eighteen hrs later, the mice were deeply anesthetized with pentobarbital (40-50 mg/Kg IP), the abdominal cavities were opened, the renal pedicles were identified and both were occluded with microvascular clamps. Body temperature was maintained at 36-37° C. throughout. Following 22 minutes of bilateral renal ischemia, the clamps were removed, uniform reperfusion was visually confirmed by the reappearance of a normal renal color (loss of tissue cyanosis), and then the abdominal cavities were closed in two layers with silk suture. […] The severity of renal injury was determined by BUN and PCr concentrations.
# Protection against acute kidney injury. […] AKI severity are determined by degrees of BUN and plasma creatinine increases.
molecule,measurement,setting,value
"C=Cc1c2[n-]c(c1C)/C=c1\[n-]/c(c(C)c1C=C)=C\c1[n-]c(c(CCC(=O)O)c1C)/C=c1\[n-]c(c(C)c1CCC(=O)O)=C2.[Sn+4] [SnPP, tin protoporphyrin]",renal cortical HO-1 mRNA induction,heme oxygenase 1 (HO-1) [1]; 4 hrs post injection,raised
same,kidney dysfunction,[2],exacerbated kidney dysfunction
same,increase in Fhc expression over control values,Ferritin heavy (Fhc),24%
same,renal cortical haptoglobin mRNA induction,haptoglobin,raised
same,fractional excretion of sodium,"renal injury in rats; day 2 after cisplatin, rats",increased
same,renal blood flow rates,"renal injury in rats; day 2 after cisplatin, rats",reduced
same,renal vascular resistance,"renal injury in rats; day 2 after cisplatin, rats",increased
same,inulin clearances,renal injury in rats; day 5,lower
same,serum creatinine values,renal injury in rats; days 3 through 5,higher
same,renal injury,renal injury in rats; pretreatment,exacerbated renal injury
same,severity of renal injury (BUN and PCr),[3],Neither SnPP alone nor FeS alone significantly altered the severity of renal injury
same,severity of renal injury (BUN and PCr),[3]; listed as Sn-protoporphyrin,Neither Sn-protoporphyrin alone nor iron-sucrose alone significantly altered the severity of renal injury
Fe sucrose [FeS],renal cortical HO-1 protein levels,heme oxygenase 1 (HO-1) [1]; 4 hrs post IV injection,marked HO-1 protein increases
same,renal cortical HO-1 protein levels,heme oxygenase 1 (HO-1) [1]; 18 hrs post IV injection,remained elevated
same,renal cortical HO-1 protein levels,"heme oxygenase 1 (HO-1) [1]; 18 hrs post IV injection, listed as iron-sucrose",persists; also recorded: remained elevated
same,increase in Fhc expression over control values,Ferritin heavy (Fhc),1-4%
same,severity of renal injury (BUN and PCr),[3],Neither SnPP alone nor FeS alone significantly altered the severity of renal injury
same,severity of renal injury (BUN and PCr),[3]; listed as iron-sucrose,Neither Sn-protoporphyrin alone nor iron-sucrose alone significantly altered the severity of renal injury
cyanocobalamin [B12],renal cortical HO-1 protein levels,heme oxygenase 1 (HO-1) [1]; 4 hrs post IV injection,marked HO-1 protein increases
same,renal cortical HO-1 protein levels,heme oxygenase 1 (HO-1) [1]; 18 hrs post IV injection,persists
tin mesoporphyrin [SnMeP],rise in plasma HO-1 levels,heme oxygenase 1 (HO-1) [4],15 fold
same,increase in renal cortical HO-1 levels over baseline,heme oxygenase 1 (HO-1) [1]; 4 hrs post injection,3 fold
same,renal cortical HO-1 mRNA induction,heme oxygenase 1 (HO-1) [1]; 4 hrs post injection,raised
same,increase in renal cortical HO-1 levels over baseline,heme oxygenase 1 (HO-1) [1]; 18 hrs post injection,5 fold
same,plasma haptoglobin levels,haptoglobin; 4 and 18 hrs post injection,stepwise increases
same,renal cortical haptoglobin levels,haptoglobin; 4 and 18 hrs post injection,stepwise increases
same,renal cortical haptoglobin mRNA induction,haptoglobin,raised
same,ischemic damage (BUN and plasma creatinine concentrations),[5],lessening of ischemic damage
